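Tested at 5 concentrations; 48 h exposure; 96-well plates; endpoints linearly interpolated, else capped at highest concentration. At the GI50, growth is halved. TGI: total growth inhibition.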

Among the test systems are TK-10 renal; RXF 393 renal; HT29 colon; OVCAR-4 ovarian; SN12C renal; UACC-62 melanoma; SK-OV-3 ovarian; A498 renal; PC-3 prostate; HOP-62 NSCLC.
Holding throughout (assay): NCI anticancer screen, dose series, 48 h

As for `COc1ccc(-c2nn(-c3cccc(Cl)c3)cc2/C=C2\NC(=S)N(c3ccc(Cl)cc3)C2=O)cc1`, the GI50 is 6.37 µM in the experiment with TK-10 renal; 3.02 µM in the experiment on RXF 393 renal; 4.99 µM in the experiment with HT29 colon; 3.54 µM with OVCAR-4 ovarian; 5.48 µM in the experiment on SN12C renal; 3.29 µM in the experiment with UACC-62 melanoma. For the same compound, the GI50 in the experiment with SK-OV-3 ovarian is 3.77 µM; with A498 renal, 3.51 µM; in the experiment on PC-3 prostate, 5.37 µM; in the experiment on HOP-62 NSCLC, 3.91 µM. The TGI in the experiment with TK-10 renal is 16 µM; with RXF 393 renal, 9.97 µM; with HT29 colon it was 10.6 µM; with OVCAR-4 ovarian, 7.45 µM; in the experiment on SN12C renal, above 25 µM; in the experiment on UACC-62 melanoma, 7.64 µM. The TGI in the experiment with SK-OV-3 ovarian is 8.22 µM; with A498 renal, 8.56 µM; in the experiment on PC-3 prostate it was 21.6 µM; in the experiment with HOP-62 NSCLC, 7.83 µM.
As for `COc1ccc(-n2cc(-c3cc(OC)c(OC)c(OC)c3)nc2SCc2ccc(Cl)cc2)cc1OC`, the GI50 in the experiment on TK-10 renal was above 100 µM; in the experiment with RXF 393 renal, above 100 µM; in the experiment with HT29 colon it was above 100 µM; in the experiment with OVCAR-4 ovarian, 71.9 µM; in the experiment with SN12C renal it was above 100 µM; with UACC-62 melanoma, 35.5 µM. For the same compound, the GI50 in the experiment with SK-OV-3 ovarian was above 100 µM; with A498 renal it was 89 µM; in the experiment with PC-3 prostate, 35.3 µM; with HOP-62 NSCLC it was above 100 µM. Further, the TGI in the experiment with TK-10 renal, in the experiment with RXF 393 renal, in the experiment with HT29 colon, with OVCAR-4 ovarian, with SN12C renal and with UACC-62 melanoma was above 100 µM in each case. Besides, the TGI in the experiment with SK-OV-3 ovarian, in the experiment with A498 renal, in the experiment on PC-3 prostate and in the experiment on HOP-62 NSCLC was above 100 µM each time.
`CN(C)c1ccc(C(=S)c2ccc(N(C)C)cc2)cc1`: the GI50 in the experiment with TK-10 renal was 13.8 µM; with RXF 393 renal it was 4.81 µM; in the experiment with HT29 colon it was 3.79 µM; in the experiment on OVCAR-4 ovarian, 16.9 µM; in the experiment on SN12C renal, 5.91 µM; in the experiment with UACC-62 melanoma it was 4.47 µM. Further, the GI50 with SK-OV-3 ovarian is 10.9 µM; in the experiment on A498 renal, 3.16 µM; with PC-3 prostate, 22.5 µM; with HOP-62 NSCLC, 5.09 µM. The TGI in the experiment with TK-10 renal is above 100 µM; in the experiment on RXF 393 renal, 42.9 µM; in the experiment on HT29 colon, above 100 µM; with OVCAR-4 ovarian, above 100 µM; in the experiment on SN12C renal it was above 100 µM; in the experiment on UACC-62 melanoma, above 100 µM. The TGI in the experiment on SK-OV-3 ovarian is above 100 µM; in the experiment with A498 renal, 74.8 µM; in the experiment on PC-3 prostate, above 100 µM; in the experiment on HOP-62 NSCLC, above 100 µM.
On to `Cc1cccc2c(C3=C(c4cn(C)c5ccccc45)C(=O)NC3=O)cn(C)c12`, for which the GI50 in the experiment on TK-10 renal is above 25 µM; with RXF 393 renal, 6.16 µM; in the experiment on HT29 colon it was above 13.8 µM; in the experiment with OVCAR-4 ovarian, 6.64 µM; with SN12C renal it was above 25 µM; in the experiment with UACC-62 melanoma, above 25 µM. The GI50 in the experiment with SK-OV-3 ovarian was above 22.5 µM; with A498 renal, above 25 µM; in the experiment with PC-3 prostate, 18.9 µM; with HOP-62 NSCLC it was 13.4 µM. For the same compound, the TGI in the experiment with TK-10 renal was above 25 µM; with RXF 393 renal, 24.4 µM; in the experiment with HT29 colon it was above 25 µM; in the experiment with OVCAR-4 ovarian it was above 23.1 µM; in the experiment with SN12C renal, above 25 µM; in the experiment on UACC-62 melanoma, above 25 µM. The TGI with SK-OV-3 ovarian, in the experiment with A498 renal, with PC-3 prostate and in the experiment on HOP-62 NSCLC was above 25 µM each time.
For `O=C(Nc1ccc(OS(=O)(=O)c2ccc(F)cc2)cc1)C12CC3CC(CC(C3)C1)C2`, the GI50 in the experiment with TK-10 renal was 21.5 µM; in the experiment with RXF 393 renal it was 3.15 µM; with HT29 colon, 0.211 µM; in the experiment with OVCAR-4 ovarian, 4.38 µM; in the experiment on SN12C renal, above 43.6 µM; in the experiment with UACC-62 melanoma, 6.44 µM. Besides, the GI50 in the experiment on SK-OV-3 ovarian was 10.3 µM; in the experiment with A498 renal it was 0.936 µM; with PC-3 prostate it was 0.647 µM; in the experiment with HOP-62 NSCLC, 11.3 µM. Besides, the TGI is 62.6 µM in the experiment with TK-10 renal; 22.5 µM in the experiment on RXF 393 renal; above 100 µM with HT29 colon; 37.7 µM with OVCAR-4 ovarian; above 100 µM in the experiment with SN12C renal; above 65 µM with UACC-62 melanoma. The TGI was 47.3 µM with SK-OV-3 ovarian, 22.4 µM with A498 renal, above 100 µM in the experiment on PC-3 prostate and 30.6 µM in the experiment with HOP-62 NSCLC.
On to `C=CC(=O)N[C@@H]1CN(c2nc(Nc3cn(C)nc3OC)c3ncn(C)c3n2)C[C@H]1F`, for which the GI50 in the experiment on TK-10 renal is 0.0664 µM; with RXF 393 renal it was 34.1 µM; in the experiment with HT29 colon, 20.9 µM; with OVCAR-4 ovarian, 26.7 µM; in the experiment on SN12C renal, 45.9 µM; in the experiment with UACC-62 melanoma it was 23.1 µM. Further, the GI50 in the experiment on SK-OV-3 ovarian is 0.0881 µM; in the experiment with A498 renal, 16.4 µM; in the experiment on PC-3 prostate, 60.1 µM; with HOP-62 NSCLC, 26.2 µM. Further, the TGI is 23.9 µM in the experiment with TK-10 renal; above 84.5 µM with RXF 393 renal; above 83.1 µM in the experiment with HT29 colon; above 100 µM in the experiment with OVCAR-4 ovarian; above 100 µM with SN12C renal; above 90.6 µM with UACC-62 melanoma. The TGI in the experiment with SK-OV-3 ovarian was above 47.2 µM; in the experiment on A498 renal it was 67.7 µM; in the experiment with PC-3 prostate, above 100 µM; with HOP-62 NSCLC, above 100 µM.
Regarding `COc1ccc(C(=O)/C=C/c2sc(Cl)nc2Cl)cc1`, the GI50 is 4.57 µM in the experiment with TK-10 renal; 1.28 µM in the experiment on RXF 393 renal; 1.89 µM with HT29 colon; 7.28 µM with OVCAR-4 ovarian; 0.408 µM in the experiment on SN12C renal; 2.22 µM with UACC-62 melanoma. Moreover, the GI50 in the experiment on SK-OV-3 ovarian was 7.68 µM; in the experiment on A498 renal, 4.67 µM; with PC-3 prostate it was 2.83 µM; in the experiment on HOP-62 NSCLC, 4.59 µM. Further, the TGI in the experiment with TK-10 renal was found to be 30.3 µM; in the experiment with RXF 393 renal, 3.02 µM; with HT29 colon, 4.66 µM; with OVCAR-4 ovarian it was 20.2 µM; in the experiment on SN12C renal, 3.19 µM; with UACC-62 melanoma it was 6.19 µM. Moreover, the TGI was found to be 23.7 µM with SK-OV-3 ovarian, 20.2 µM with A498 renal, 11.6 µM in the experiment with PC-3 prostate and 21.2 µM in the experiment on HOP-62 NSCLC.

Values taken from PubChem BioAssay (NCI).
